Data published in PMC10743905, “Design, Synthesis, and In Vitro and In Vivo Bioactivity Studies of Hydrazide–Hydrazones of 2,4-Dihydroxybenzoic Acid” (International Journal of Molecular Sciences, 2023).
≈ marks a conversion by molar mass, not a printed value.

Experiments:
[1] = test system: Micrococcus luteus ATCC 10240; assay: Broth microdilution MIC/MBC; format: cell-based; details: for MBC: ATCC10240; for MIC: ATCC10240, read-out: MIC
From the text: (§1) In vitro antimicrobial activity assays - Methodology
(§2) The examined compounds 1 - 24 were screened in vitro for antibacterial and antifungal activities using the broth microdilution method according to procedure reported earlier by our research group and European Committee on Antimicrobial Susceptibility Testing (EUCAST) and Clinical and Laboratory Standards Institute (CLSI) guidelines against a panel of reference and clinical or saprophytic strains of microorganisms, in-cluding Gram-positive bacteria, Staphylococcus aureus ATCC 43300 (Methicillin Resistant S. aureus – MRSA), Staphylococcus aureus ATCC 29213 (Methicillin Susceptible S. aureus – MSSA), Staphylococcus epidermidis ATCC 12228, Enterococcus faecalis ATCC 29212, Micro-coccus luteus ATCC 10240, Bacillus subtilis ATCC 6633 and Bacillus cereus ATCC 10876), Gram-negative bacteria (Bordetella bronchiseptica ATCC 4617, Escherichia coli ATCC 25922, Klebsiella pneumoniae ATCC 13883, Proteus mirabilis ATCC 12453, Salmonella typhimurium ATCC 14028 and Pseudomonas aeruginosa ATCC 9027) and fungi belonging to yeasts (Can-dida albicans ATCC 10231, Candida albicans ATCC 2091, Candida parapsilosis ATCC 22019, Candida glabrata ATCC 90030 and Candida krusei ATCC 14243). The microorganisms be-longing to ATCC came from American Type Culture Collection, routinely used for the evaluation of antimicrobials. […]
(§3) Samples containing examined compounds were dissolved in dimethyl sulfoxide (DMSO). […]
(§4) Subsequently, the MIC (Minimal Inhibitory Concentration) of the compounds was ex-amined by the microdilution broth method, using their two-fold dilutions in Mueller- […]
(§5) Hinton broth or (for bacteria) and RPMI 1640 broth with MOPS (for fungi) prepared in 96-well polystyrene plates. Final concentrations of the compounds ranged from 1000 to 0.488 µg/ml. Microbial suspensions were prepared in 0.85% NaCl with an optical density of 0.5 McFarland standard. Next each bacterial or fungal suspension was added per each well containing broth and various concentrations of the examined compounds. After incuba-

[2] = test system: Proteus mirabilis ATCC 12453; assay: Broth microdilution MIC/MBC; format: cell-based; details: ATCC12453
From the text: as §1, §2, §3, §4, §5

[3] = test system: Pseudomonas aeruginosa ATCC 9027; assay: Broth microdilution MIC/MBC; format: cell-based; details: ATCC9027
From the text: as §1, §2, §3, §4, §5

[4] = test system: Salmonella typhimurium ATCC 14028; assay: Broth microdilution MIC/MBC; format: cell-based; details: Salmonella enterica
From the text: as §1, §2, §3, §4, §5

[5] = test system: Staphylococcus aureus ATCC 29213; assay: Broth microdilution MIC/MBC; format: cell-based
From the text: as §1, §2, §3, §4, §5

[6] = test system: Staphylococcus aureus ATCC 43300; assay: Broth microdilution MIC/MBC; format: cell-based; details: Staphylococcus aureus ATCC 43300 (MRSA)
From the text: as §1, §2, §3, §4, §5

[7] = test system: Staphylococcus epidermidis ATCC 12228; assay: Broth microdilution MIC/MBC; format: cell-based; details: ATCC12228, read-out: MIC
From the text: as §1, §2, §3, §4, §5

[8] = test system: Bacillus subtilis ATCC 6633; assay: Broth microdilution MIC/MBC; format: cell-based; details: for MIC: ATCC6633, read-out: MIC
From the text: Detailed procedures are presented in the Supplementary Materials. […]
as §1
as §2, with “antimicrobials. All the used microbial cultures were first subcultured on nu-trient agar or Sabouraud agar at 35°C for 18-24 h or 30°C for 24-48 h for bacteria and fungi,” for “antimicrobials.”
(§6) The surface of Mueller-Hinton agar (for bacteria) and RPMI 1640 with MOPS (for fungi) were inoculated with the suspensions of bacterial or fungal species. Microbial suspensions were prepared in sterile saline with an optical density of McFarland standard scale 0.5.
(§7) Samples containing examined compounds were dissolved in dimethyl sulfoxide (DMSO).
(§8) Furthermore, bacterial and fungal suspensions were put onto Petri dishes with solid me-dia containing 2 mg/mL of the tested compounds followed incubation at 37°C for 24h and 30°C for 48h for bacteria and fungi, respectively. The inhibition of microbial growth was judged by comparison with a control culture prepared without any sample tested. Ciprof-loxacin, vancomycin, nitrofurantoin, cefuroxime, ampicillin or nystatin (Sigma) were used as a reference antibacterial or antifungal compounds, respectively.
as §4, §5

[9] = test system: Bacillus cereus ATCC 10876; assay: Broth microdilution MIC/MBC; format: cell-based; details: for MIC: ATCC10876, read-out: MIC
From the text: as §1
as §2, with “antimicrobials. All the used microbial cultures were first subcultured on nu-trient agar or Sabouraud agar at 35°C for 18-24 h or 30°C for 24-48 h for bacteria and fungi,” for “antimicrobials.”
as §6, §7, §8, §4, §5

[10] = test system: Bordetella bronchiseptica ATCC 4617; assay: Broth microdilution MIC/MBC; format: cell-based; details: ATCC4617
From the text: as §1
as §2, with “antimicrobials. All the used microbial cultures were first subcultured on nu-trient agar or Sabouraud agar at 35°C for 18-24 h or 30°C for 24-48 h for bacteria and fungi,” for “antimicrobials.”
as §6, §7, §8, §4, §5

[11] = test system: Enterococcus faecalis ATCC 29212; assay: Broth microdilution MIC/MBC; format: cell-based; details: for MIC: ATCC29212, read-out: MIC
From the text: as §1
as §2, with “antimicrobials. All the used microbial cultures were first subcultured on nu-trient agar or Sabouraud agar at 35°C for 18-24 h or 30°C for 24-48 h for bacteria and fungi,” for “antimicrobials.”
as §6, §7, §8, §4, §5

[12] = test system: Escherichia coli ATCC 25922; assay: Broth microdilution MIC/MBC; format: cell-based; details: ATCC25922
From the text: as §1
as §2, with “antimicrobials. All the used microbial cultures were first subcultured on nu-trient agar or Sabouraud agar at 35°C for 18-24 h or 30°C for 24-48 h for bacteria and fungi,” for “antimicrobials.”
as §6, §7, §8, §4, §5

[13] = test system: Klebsiella pneumoniae ATCC 13883; assay: Broth microdilution MIC/MBC; format: cell-based; details: ATCC13883
From the text: as §1
as §2, with “antimicrobials. All the used microbial cultures were first subcultured on nu-trient agar or Sabouraud agar at 35°C for 18-24 h or 30°C for 24-48 h for bacteria and fungi,” for “antimicrobials.”
as §6, §7, §8, §4, §5

[14] = test system: Candida albicans ATCC 10231; assay: Broth microdilution MIC/MFC; format: cell-based; details: for MIC: ATCC10231, read-out: MIC
From the text: as §1
as §2, with “antimicrobials. All the used microbial cultures were first subcultured on nu-trient agar or Sabouraud agar at 35°C for 18-24 h or 30°C for 24-48 h for bacteria and fungi,” for “antimicrobials.”
as §6, §7, §8, §4, §5

[15] = test system: Candida albicans ATCC 2091; assay: Broth microdilution MIC/MFC; format: cell-based; details: for MIC: ATCC2091, read-out: MIC
From the text: as §1
as §2, with “antimicrobials. All the used microbial cultures were first subcultured on nu-trient agar or Sabouraud agar at 35°C for 18-24 h or 30°C for 24-48 h for bacteria and fungi,” for “antimicrobials.”
as §6, §7, §8, §4, §5

[16] = test system: Candida glabrata ATCC 90030; assay: Broth microdilution MIC/MFC; format: cell-based; details: Nakaseomyces glabratus, ATCC90030, read-out: MIC
From the text: as §1
as §2, with “antimicrobials. All the used microbial cultures were first subcultured on nu-trient agar or Sabouraud agar at 35°C for 18-24 h or 30°C for 24-48 h for bacteria and fungi,” for “antimicrobials.”
as §6, §7, §8, §4, §5

[17] = test system: Candida krusei ATCC 14243; assay: Broth microdilution MIC/MFC; format: cell-based; details: Pichia kudriavzevii, ATCC14243, read-out: MIC
From the text: as §1
as §2, with “antimicrobials. All the used microbial cultures were first subcultured on nu-trient agar or Sabouraud agar at 35°C for 18-24 h or 30°C for 24-48 h for bacteria and fungi,” for “antimicrobials.”
as §6, §7, §8, §4, §5

[18] = test system: Candida parapsilosis ATCC 22019; assay: Broth microdilution MIC/MFC; format: cell-based; details: Lodderomyces parapsilosis, ATCC22019, read-out: MIC
From the text: as §1
as §2, with “antimicrobials. All the used microbial cultures were first subcultured on nu-trient agar or Sabouraud agar at 35°C for 18-24 h or 30°C for 24-48 h for bacteria and fungi,” for “antimicrobials.”
as §6, §7, §8, §4, §5

| SMILES | MBC/MIC [1] | MBC [1] [µg/mL] | MIC [1] [µg/mL] | MIC [2] [µg/mL] | MIC [3] [µg/mL] | MIC [4] [µg/mL] | MIC ([5]; ATCC29213) [µg/mL] | MIC [6] [µg/mL] | MIC [7] [µg/mL] | MIC [8] [µg/mL] | MIC [9] [µg/mL] | MIC [10] [µg/mL] | MIC [11] [µg/mL] | MIC [12] [µg/mL] | MIC [13] [µg/mL] | MIC [14] [µg/mL] | MIC [15] [µg/mL] | MIC [16] [µg/mL] | MIC [17] [µg/mL] | MIC [18] [µg/mL] | further results |
| --- | --- | --- | --- | --- | --- | --- | --- | --- | --- | --- | --- | --- | --- | --- | --- | --- | --- | --- | --- | --- | --- |
| Cc1ccc(/C=N/NC(=O)c2ccc(O)cc2O)cc1 [Compound 3, 2,4-dihydroxy-N-[(4-methylphenyl)methylidene]benzohydrazide] | > 2 | > 1000 | 500 (≈ 1.85 mM) | > 1000 | > 1000 | > 1000 | > 1000 | > 1000 | > 1000 | > 1000 | > 1000 | > 1000 | > 1000 | > 1000 | > 1000 | > 1000 | > 1000 | > 1000 | > 1000 | > 1000 | melting point: 248 °C |
| CCOc1ccc(/C=N/NC(=O)c2ccc(O)cc2O)cc1 [Compound 5, N-[(4-ethoxyphenyl)methylidene]-2,4-dihydroxybenzohydrazide] | > 2 | > 1000 | 500 (≈ 1.66 mM) | > 1000 | > 1000 | > 1000 | 1000 (≈ 3.33 mM) | > 1000 | > 1000 | 500 (≈ 1.66 mM) | 500 (≈ 1.66 mM) | > 1000 | 1000 (≈ 3.33 mM) | > 1000 | > 1000 | 1000 (≈ 3.33 mM) | 500 (≈ 1.66 mM) | > 1000 | > 1000 | > 1000 | MBC/MIC [5]: > 1; MBC ([5]; ATCC29213): > 1000 µg/mL; MBC/MIC [8]: > 2; MBC ([8]; ATCC6633): > 1000 µg/mL; MBC/MIC [9]: > 2; MBC ([9]; ATCC10876): > 1000 µg/mL; MBC/MIC [11]: > 1; MBC ([11]; ATCC29212, read-out: MBC): > 1000 µg/mL; MFC/MIC [14]: > 1; MFC ([14]; ATCC10231, read-out: MFC): > 1000 µg/mL; MFC/MIC [15]: > 2; MFC ([15]; ATCC2091, read-out: MFC): > 1000 µg/mL; melting point: 248 °C |
